Experimental data as given in patent US7517998B2, “Non nucleoside reverse transcriptase inhibitors” (priority 2004, dated 2009).

Target: T1, K103NNY181C mutant reverse transcriptase (Human immunodeficiency virus type 1 group M subtype B, UniProt P04585, K690N/Y768C)
T1 construct: mutations that occur in the reverse transcriptase segment of the pol gene
Assay: Reverse transcriptase enzymatic assay (PicoGreen), K103N/Y181C mutant RT
Assay type: biochemical, HIV-1
Conditions: enzymatic assay of Example 24
Procedure, shortened: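 PicoGreen fluorescence (ex 485, em 520 nm) quantified product after EDTA stop. Reaction ran 50 min at 37 °C in pH 7.8 Tris/HCl buffer, 1% DMSO, with poly rC/dG15 template-primer (45/4.5 nM), 3.6 μM dGTP, 2.5 nM enzyme; inhibitor 10 μM–0.508 nM final after 15 min room-temperature pre-incubation.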

[1] = IC50 mut, K103N/Y181C mutant reverse transcriptase
[2] = IC50 mut, mutant reverse transcriptase
[3] = IC50 mut (nM), mutant (K103N/Y181C) reverse transcriptase

Structure (SMILES)	IC50 [1] [nM]	IC50 [2] [nM]	other results
CC(C)(C#Cc1ccc(NC(=O)CSc2nnnn2-c2ccccc2Cl)c(Cl)c1)C(=O)O [Compound 4207]	442		
O=C(CSc1nnnn1-c1ccc(C2CC2)cc1Cl)Nc1ccc(C(=O)NCCc2cc[n+]([O-])cc2)cc1Cl [Compound 6035]		39	
CN(C)CC(=O)NC(C)(C)C#Cc1ccc(NC(=O)CSc2nnnn2-c2cc(C(F)(F)F)ccc2Cl)c(Cl)c1F [Compound 4171]	31.5		
CC(C)(C)c1ccc(-n2nnnc2SCC(=O)Nc2ccc(OCC(=O)NCC(=O)O)cc2Cl)c(Cl)c1 [Compound 5020]		163	
Cc1cc(C#CC(C)(C)NC(=O)c2cc[n+]([O-])cc2)ccc1NC(=O)CSc1nnnn1-c1ccc(C2CC2)cc1Cl [Compound 4180]	71		
CC(C)(C#Cc1ccc(NC(=O)CSc2nnnn2-c2ccc(C3CC3)cc2Cl)c(Cl)c1)NC(=O)CN1CCNCC1 [Compound 4124]	27		
CN(C)CC(=O)NC(C)(C)C#Cc1ccc(NC(=O)CSc2nnnn2-c2cc(C(F)(F)F)ccc2Cl)c(Cl)c1 [Compound 4138]	43		
CC(C)(C#Cc1ccc(NC(=O)CSc2nnnn2-c2ccc(CC3CC3)cc2Cl)c(Cl)c1)NC(=O)c1cc[n+]([O-])cc1 [Compound 4247]	19		
C=CC#Cc1ccc(NC(=O)CSc2nnnn2-c2ccc(C3CC3)cc2Cl)c(Cl)c1 [Compound 4133]	53.5		
CC(C)(C)c1ccc(-n2nnnc2SCC(=O)Nc2ccc(NC(=O)Cc3ccccc3)cc2Cl)c(Cl)c1 [Compound 7001]			IC50 [3]: 116 nM
Cc1ccc(-n2nnnc2SCC(=O)Nc2ccc(C#CC(C)(C)O)cc2Cl)c(Cl)c1C(F)(F)F [Compound 4059]	656		
CN1CCN(CCOC(C)(C)C#Cc2ccc(NC(=O)CSc3nnnn3-c3ccc(C4CC4)cc3Cl)c(Cl)c2)CC1 [Compound 4105]	66.5		
CNC(=O)COC(C)(C)C#Cc1ccc(NC(=O)CSc2nnnn2-c2ccc(C(C)(C)C)cc2Cl)c(Cl)c1 [Compound 4051]	35		
CN1CCN(CC2(C#Cc3ccc(NC(=O)CSc4nnnn4-c4ccc(C5CC5)cc4Cl)c(Cl)c3)CC2)CC1 [Compound 4094]	48.5		
O=C(O)Cc1ccc(-c2ccc(NC(=O)CSc3nnnn3-c3ccc(C4CC4)cc3Cl)c(Cl)c2)cc1 [Compound 2033]		15	
CC(C)(C)c1ccc(-n2nnnc2SCC(=O)Nc2ccc(C(=O)Nc3ccc(CC(=O)O)cc3)cc2Cl)c(Cl)c1 [Compound 6001]		69	
CC(C)(C)c1ccc(-n2nnnc2SCC(=O)Nc2ccc(C#CCN3CCCC3)cc2Cl)c(Cl)c1 [Compound 4012]	46		
CC(C)(C)c1ccc(-n2nnnc2SCC(=O)Nc2ccc(-c3ccc(S(C)(=O)=O)cc3)cc2Cl)c(Cl)c1 [Compound 2027]		23	

Structure (SMILES)	IC50 [1] [nM]	IC50 [2] [nM]	other results
CC(C)(C)c1ccc(-n2nnnc2SCC(=O)Nc2ccc(C(=O)NCc3ccco3)cc2Cl)c(Cl)c1 [Compound 6003]		13	
CC(C)(C#Cc1ccc(NC(=O)CSc2nnnn2-c2cc(C3CC3)ccc2Cl)c(Cl)c1F)OCCN1CCNCC1 [Compound 4209]	46		
CC(C)(C#Cc1ccc(NC(=O)CSc2nnnn2-c2ccc(C3CC3)cc2Cl)c(Cl)c1F)NC(=O)c1cc[n+]([O-])cc1 [Compound 4157]	5.95		
CC(C)(C#Cc1ccc(NC(=O)CSc2nnnn2-c2ccc(C3CC3)cc2Cl)c(Cl)c1)NC(=O)Cn1cncn1 [Compound 4109]	10.8		
CC(C)(O)C#Cc1ccc(NC(=O)CSc2nnnn2-c2cc(C#N)ccc2Cl)c(Cl)c1 [Compound 4021]	361		
CC(C)(C)c1ccc(-n2nnnc2SCC(=O)Nc2ccc(-c3ccc(OCC(=O)O)cc3Cl)cc2Cl)c(Cl)c1 [Compound 3009]		154	
O=C(COc1ccc(NC(=O)CSc2nnnn2-c2ccc(C3CC3)cc2Cl)c(Cl)c1)NCCc1cccc[n+]1[O-] [Compound 5038]		557	
Cc1cc(-c2ccc(NC(=O)CSc3nnnn3-c3ccc(C(C)(C)C)cc3Cl)c(Cl)c2)ccc1OCC(=O)O [Compound 3010]		33	
CC(C)(C#Cc1ccc(NC(=O)CSc2nnnn2-c2ccc(C(C)(C)C)cc2Cl)c(Cl)c1)OCC(=O)O [Compound 4020]	33		
CC(C)(C#Cc1ccc(NC(=O)CSc2nnnn2-c2cc(C(F)(F)F)cc(C3CC3)c2Cl)c(Cl)c1)OCCN1CCC(F)(F)C1 [Compound 4242]	854		
CC(C)(C)c1ccc(-n2nnnc2SCC(=O)Nc2ccc(OCC(=O)NCc3ccc(N)cc3)cc2Cl)c(Cl)c1 [Compound 5026]		86	
Cc1ccc(-n2nnnc2SCC(=O)Nc2ccc(-c3csc(N)n3)cc2Cl)c(Cl)c1 [Compound 3015]		185	
C#CCCC(=O)Nc1ccc(NC(=O)CSc2nnnn2-c2ccc(C(C)(C)C)cc2Cl)c(Cl)c1 [Compound 7020]			IC50 [3]: 69 nM
CC(C)(C#Cc1ccc(NC(=O)CSc2nnnn2-c2cccc(Cl)c2Cl)c(Cl)c1)C(=O)O [Compound 4161]	224		
CC(C)(C)c1ccc(-n2nnnc2SCC(=O)Nc2ccc(NC(=O)NCc3ccccc3)cc2Cl)c(Cl)c1 [Compound 7008]			IC50 [3]: 428 nM
CC(C)(C)c1ccc(-n2nnnc2SCC(=O)Nc2ccc(C(=O)Nc3ccc(O)cc3)cc2Cl)c(Cl)c1 [Compound 6013]		34	
CC(C)(C#Cc1ccc(NC(=O)CSc2nnnn2-c2ccc(C(C)(C)C)cc2Cl)c(Cl)c1)OCC(=O)N1CCCC1 [Compound 4038]	75		
